# Assay results reported in the supplement of paper PMC10307832.
# Assays:
# Experiment in all cases: relative viability (nuclei count vs DMSO), 5 days (fraction); higher = more cells survive
# ChaGo-K-1 = test system: ChaGo-K-1
# In short: (§1)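 Five library-drug doses in √10 steps were combined with a fixed anchor-drug dose, or a single drug was given alone, by pin tool to lung cancer cell lines in 1536-well plates the day after seeding. Nuclei were stained and counted after 5 days. Relative viability is the nuclei count in treated wells over that in vehicle wells, taken as the median of duplicate plates.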
# EMC-BAC-2 = test system: EMC-BAC-2
# In short: as §1
# EPLC-272H = test system: EPLC-272H
# In short: as §1
# HCC-366 = test system: HCC-366
# In short: as §1
# HCC-44 = test system: HCC-44
# In short: as §1
# HCC-78 = test system: HCC-78
# In short: as §1
# HCC-827 = test system: HCC-827
# In short: as §1
# LCLC-103H = test system: LCLC-103H
# In short: as §1
# LK-2 = test system: LK-2
# In short: as §1
# LOU-NH91 = test system: LOU-NH91
# In short: as §1
# LU99A = test system: LU99A
# In short: as §1
# LXF-289 = test system: LXF-289
# In short: as §1
# NCI-H1563 = test system: NCI-H1563
# In short: as §1
# NCI-H1666 = test system: NCI-H1666
# In short: as §1
# NCI-H1975 = test system: NCI-H1975
# In short: as §1
# NCI-H2085 = test system: NCI-H2085
# In short: as §1
# NCI-H2126 = test system: NCI-H2126
# In short: as §1
# NCI-H23 = test system: NCI-H23
# In short: as §1
# NCI-H2405 = test system: NCI-H2405
# In short: as §1
# NCI-H3122 = test system: NCI-H3122
# In short: as §1
# RERF-LC-KJ = test system: RERF-LC-KJ
# In short: as §1
# SK-LU-1 = test system: SK-LU-1
# In short: as §1
# SW 1573 = test system: SW 1573
# In short: as §1
# SW 900 = test system: SW 900
# In short: as §1
structure (smiles),measurement,setting,value
Clc1ccc(Nc2nnc(Cc3ccncc3)c3ccccc23)cc1 [Vatalanib] + COc1cccc2cc(-c3nc([C@H]4CC[C@H](C(=O)O)CC4)n4ncnc(N)c34)[nH]c12 [OSI-027] (partner 0.5 µM),relative viability,ChaGo-K-1; first compound 0.04 µM,0.589
same,relative viability,ChaGo-K-1; first compound 0.1265 µM,0.548
same,relative viability,ChaGo-K-1; first compound 0.4 µM,0.622
same,relative viability,ChaGo-K-1; first compound 1.265 µM,0.5
same,relative viability,ChaGo-K-1; first compound 4 µM,0.594
same,relative viability,EMC-BAC-2; first compound 0.04 µM,0.413
same,relative viability,EMC-BAC-2; first compound 0.1265 µM,0.392
same,relative viability,EMC-BAC-2; first compound 0.4 µM,0.398
same,relative viability,EMC-BAC-2; first compound 1.265 µM,0.335
same,relative viability,EMC-BAC-2; first compound 4 µM,0.4
same,relative viability,EPLC-272H; first compound 0.04 µM,0.268
same,relative viability,EPLC-272H; first compound 0.1265 µM,0.259
same,relative viability,EPLC-272H; first compound 0.4 µM,0.323
same,relative viability,EPLC-272H; first compound 1.265 µM,0.301
same,relative viability,EPLC-272H; first compound 4 µM,0.303
same,relative viability,HCC-366; first compound 0.04 µM,1.18
same,relative viability,HCC-366; first compound 0.1265 µM,0.846
same,relative viability,HCC-366; first compound 0.4 µM,1.13
same,relative viability,HCC-366; first compound 1.265 µM,0.736
same,relative viability,HCC-366; first compound 4 µM,0.548
same,relative viability,HCC-44; first compound 0.04 µM,0.524
same,relative viability,HCC-44; first compound 0.1265 µM,0.652
same,relative viability,HCC-44; first compound 0.4 µM,0.438
same,relative viability,HCC-44; first compound 1.265 µM,0.439
same,relative viability,HCC-44; first compound 4 µM,0.355
same,relative viability,HCC-78; first compound 0.04 µM,0.318
same,relative viability,HCC-78; first compound 0.1265 µM,0.37
same,relative viability,HCC-78; first compound 0.4 µM,0.381
same,relative viability,HCC-78; first compound 1.265 µM,0.306
same,relative viability,HCC-78; first compound 4 µM,0.351
same,relative viability,HCC-827; first compound 0.04 µM,0.818
same,relative viability,HCC-827; first compound 0.1265 µM,0.729
same,relative viability,HCC-827; first compound 0.4 µM,0.739
same,relative viability,HCC-827; first compound 1.265 µM,0.744
same,relative viability,HCC-827; first compound 4 µM,0.705
same,relative viability,LCLC-103H; first compound 0.04 µM,0.496
same,relative viability,LCLC-103H; first compound 0.1265 µM,0.412
same,relative viability,LCLC-103H; first compound 0.4 µM,0.55
same,relative viability,LCLC-103H; first compound 1.265 µM,0.503
same,relative viability,LCLC-103H; first compound 4 µM,0.457
same,relative viability,LK-2; first compound 0.04 µM,0.211
same,relative viability,LK-2; first compound 0.1265 µM,0.208
same,relative viability,LK-2; first compound 0.4 µM,0.214
same,relative viability,LK-2; first compound 1.265 µM,0.196
same,relative viability,LK-2; first compound 4 µM,0.198
same,relative viability,LOU-NH91; first compound 0.04 µM,0.712
same,relative viability,LOU-NH91; first compound 0.1265 µM,0.738
same,relative viability,LOU-NH91; first compound 1.265 µM,0.728
same,relative viability,LOU-NH91; first compound 4 µM,0.625
same,relative viability,LU99A; first compound 0.04 µM,0.262
same,relative viability,LU99A; first compound 0.1265 µM,0.282
same,relative viability,LU99A; first compound 0.4 µM,0.358
same,relative viability,LU99A; first compound 1.265 µM,0.307
same,relative viability,LU99A; first compound 4 µM,0.277
same,relative viability,LXF-289; first compound 0.04 µM,0.824
same,relative viability,LXF-289; first compound 0.1265 µM,0.802
same,relative viability,LXF-289; first compound 0.4 µM,0.858
same,relative viability,LXF-289; first compound 1.265 µM,0.806
same,relative viability,LXF-289; first compound 4 µM,0.761
same,relative viability,NCI-H1563; first compound 0.04 µM,0.735
same,relative viability,NCI-H1563; first compound 0.1265 µM,0.677
same,relative viability,NCI-H1563; first compound 0.4 µM,0.827
same,relative viability,NCI-H1563; first compound 1.265 µM,0.698
same,relative viability,NCI-H1563; first compound 4 µM,0.738
same,relative viability,NCI-H1666; first compound 0.04 µM,0.852
same,relative viability,NCI-H1666; first compound 0.1265 µM,0.815
same,relative viability,NCI-H1666; first compound 0.4 µM,0.883
same,relative viability,NCI-H1666; first compound 1.265 µM,0.802
same,relative viability,NCI-H1666; first compound 4 µM,0.82
same,relative viability,NCI-H1975; first compound 0.04 µM,0.778
same,relative viability,NCI-H1975; first compound 0.1265 µM,0.739
same,relative viability,NCI-H1975; first compound 0.4 µM,0.688
same,relative viability,NCI-H1975; first compound 1.265 µM,0.568
same,relative viability,NCI-H1975; first compound 4 µM,0.673
same,relative viability,NCI-H2085; first compound 0.04 µM,0.685
same,relative viability,NCI-H2085; first compound 0.1265 µM,0.819
same,relative viability,NCI-H2085; first compound 0.4 µM,0.883
same,relative viability,NCI-H2085; first compound 1.265 µM,0.697
same,relative viability,NCI-H2085; first compound 4 µM,0.544
same,relative viability,NCI-H2126; first compound 0.04 µM,0.692
same,relative viability,NCI-H2126; first compound 0.1265 µM,0.693
same,relative viability,NCI-H2126; first compound 0.4 µM,0.797
same,relative viability,NCI-H2126; first compound 1.265 µM,0.62
same,relative viability,NCI-H2126; first compound 4 µM,0.625
same,relative viability,NCI-H23; first compound 0.04 µM,0.634
same,relative viability,NCI-H23; first compound 0.1265 µM,0.613
same,relative viability,NCI-H23; first compound 0.4 µM,0.779
same,relative viability,NCI-H23; first compound 1.265 µM,0.517
same,relative viability,NCI-H23; first compound 4 µM,0.387
same,relative viability,NCI-H2405; first compound 0.04 µM,0.665
same,relative viability,NCI-H2405; first compound 0.1265 µM,0.631
same,relative viability,NCI-H2405; first compound 1.265 µM,0.666
same,relative viability,NCI-H2405; first compound 4 µM,0.608
same,relative viability,NCI-H3122; first compound 0.04 µM,1.13
same,relative viability,NCI-H3122; first compound 0.1265 µM,0.982
same,relative viability,NCI-H3122; first compound 1.265 µM,0.934
same,relative viability,NCI-H3122; first compound 4 µM,0.848
same,relative viability,RERF-LC-KJ; first compound 0.04 µM,0.657
same,relative viability,RERF-LC-KJ; first compound 0.1265 µM,0.591
same,relative viability,RERF-LC-KJ; first compound 0.4 µM,0.588
same,relative viability,RERF-LC-KJ; first compound 1.265 µM,0.549
same,relative viability,RERF-LC-KJ; first compound 4 µM,0.564
same,relative viability,SK-LU-1; first compound 0.04 µM,0.365
same,relative viability,SK-LU-1; first compound 0.1265 µM,0.346
same,relative viability,SK-LU-1; first compound 0.4 µM,0.395
same,relative viability,SK-LU-1; first compound 1.265 µM,0.357
same,relative viability,SK-LU-1; first compound 4 µM,0.348
same,relative viability,SW 1573; first compound 0.04 µM,0.714
same,relative viability,SW 1573; first compound 0.1265 µM,0.574
same,relative viability,SW 1573; first compound 0.4 µM,0.666
same,relative viability,SW 1573; first compound 1.265 µM,0.585
same,relative viability,SW 1573; first compound 4 µM,0.59
same,relative viability,SW 900; first compound 0.1265 µM,0.531
same,relative viability,SW 900; first compound 0.4 µM,0.565
same,relative viability,SW 900; first compound 1.265 µM,0.618
same,relative viability,SW 900; first compound 4 µM,0.501
